In brackets after ≈: the same amount, converted by molar mass. Activity calls are given as the source filed them. The rule behind the calls is not given here.

The subject of one series is Klebsiella aerogenes. Nature of the series: Antimicrobial activity against Enterobacter aerogenes by broth dilution method. Format: functional.
A further series concerns Citrobacter freundii. Nature of the series: Antimicrobial activity against Citrobacter freundii by broth dilution method. Format: functional.
Series [1] deals with Escherichia coli. The series is described as follows: Antimicrobial activity against Escherichia coli by broth dilution method. Format: functional. For orientation: Broth dilution looks for growth in wells or tubes with falling amounts of substance.
Series [2] concerns Klebsiella oxytoca. The series is described as follows: Antimicrobial activity against Klebsiella oxytoca by broth dilution method. Format: functional.
The next series has as its system Acinetobacter sp. The series is described as follows: Antimicrobial activity against Acinetobacter sp. by broth dilution method. Type of series: functional.
Series [3] relates to Escherichia coli. Nature of the series: Antimicrobial activity against Escherichia coli HB101 harboring beta-lactamase TEM-5 by broth dilution method. Type of series: functional.
Series [4] relates to Escherichia coli. Nature of the series: Antimicrobial activity against Escherichia coli K802N harboring beta-lactamase TEM-3 by broth dilution method. Format: functional.
The subject of series [5] is Escherichia coli. Nature of the series: Antimicrobial activity against Escherichia coli CF102 harboring beta-lactamase TEM-3 by broth dilution method. Type of series: functional.
Series [6] deals with Klebsiella pneumoniae. The series is described as follows: Antimicrobial activity against Klebsiella pneumoniae 1357E harboring beta-lactamase TEM-10 by broth dilution method. Format: functional.
Series [7] deals with Escherichia coli. The series is described as follows: Antimicrobial activity against Escherichia coli A harboring beta-lactamase CTX-M 15 by broth dilution method. Type of series: functional.
Series [8] has as its system Klebsiella pneumoniae. Nature of the series: Antimicrobial activity against Klebsiella pneumoniae 26768WU harboring beta-lactamase SHV-5 by broth dilution method. Format: functional.
The test system of series [9] is Klebsiella oxytoca. The series is described as follows: Antimicrobial activity against Klebsiella oxytoca 1028E harboring beta-lactamase K1 by broth dilution method. Format: functional.
Another series concerns Serratia marcescens. Nature of the series: Antimicrobial activity against Serratia marcescens S6 harboring beta-lactamase SME-1.AmpC by broth dilution method. Type of series: functional.
Series [10] concerns Escherichia coli. The series is described as follows: Antimicrobial activity against Escherichia coli nmcA harboring beta-lactamase NMCA by broth dilution method. Format: functional.
Series [11] has as its system Klebsiella pneumoniae. The series is described as follows: Antimicrobial activity against Klebsiella pneumoniae CRE harboring beta-lactamase KPC-2 by broth dilution method. Type of series: functional.
Series [12] concerns Klebsiella pneumoniae. The series is described as follows: Antimicrobial activity against Klebsiella pneumoniae YC harboring beta-lactamase KPC-2,TEM-1and SHV-2 by broth dilution method. Type of series: functional.
For series [13], the system named is Acinetobacter baumannii. Nature of the series: Antimicrobial activity against Acinetobacter baumannii HPA74510 harboring beta-lactamase IMP-4 by broth dilution method. Type of series: functional.
For series [14], the system named is Pseudomonas aeruginosa. Nature of the series: Antimicrobial activity against Pseudomonas aeruginosa HPA10586 harboring beta-lactamase VIM-1 by broth dilution method. Type of series: functional.
The test system of the next series is Providencia rettgeri. Nature of the series: Antimicrobial activity against Providencia rettgeri J96 harboring beta-lactamase IMP-1 by broth dilution method. Format: functional.
Series [15] relates to Stenotrophomonas maltophilia. Nature of the series: Antimicrobial activity against Stenotrophomonas maltophilia B715 harboring beta-lactamase L1and L2 by broth dilution method. Type of series: functional.
The subject of series [16] is Escherichia coli. The series is described as follows: Antimicrobial activity against Escherichia coli Libyien harboring beta-lactamase CMY-2 by broth dilution method. Format: functional.
Series [17] is described as follows: Inhibition of Escherichia coli Penicillin-binding protein 1A.
A short description of series [18]: Inhibition of Escherichia coli Penicillin-binding protein 1B.
Series [19] is described as follows: Inhibition of Escherichia coli Penicillin-binding protein 2.
Series [20] can be described thus: Inhibition of Escherichia coli Penicillin-binding protein 3.
Series [21] deals with Acinetobacter baumannii. Nature of the series: Antimicrobial activity against Acinetobacter baumannii HPA 4737 harboring beta-lactamase OXA-26 by broth dilution method. Type of series: functional.
Series [22] relates to Acinetobacter baumannii. The series is described as follows: Antimicrobial activity against Acinetobacter baumannii HPA I-16 harboring beta-lactamase OXA-27 by broth dilution method. Format: functional.
Series [23] relates to Escherichia coli. The series is described as follows: Antimicrobial activity against Escherichia coli W3110 assessed as appearance of spheroplast at 64 ug/mL after 3 hrs by phase-contrast microscopy. Format: functional, organism-based.
The subject of series [24] is Escherichia coli. The series is described as follows: Antimicrobial activity against Escherichia coli W3110 assessed as appearance of long filaments at 64 ug/mL after 3 hrs by phase-contrast microscopy. Type of series: functional, organism-based.
Series [25] can be described thus: Inhibition of beta-lactamase KPC-2.
Series [26] is described as follows: Inhibition of Beta-lactamase IMP1.
The target of another series is AmpC (Escherichia coli, UniProt Q83TT7). The series is described as follows: Inhibition of Escherichia coli ATCC 25922 AmpC.
In series [27] the test system is Acinetobacter baumannii. The series is described as follows: Antimicrobial activity against Acinetobacter baumannii HPA 327009 harboring beta-lactamase OXA-25 by broth dilution method. Type of series: functional.
Series [28] deals with Pseudomonas aeruginosa. Nature of the series: microbe, parasite or virus in culture. The note with it: 18S/H.
In series [29] the test system is Pseudomonas aeruginosa. The series is described as follows: Antimicrobial activity against Pseudomonas aeruginosa by broth dilution method. Type of series: functional.
Series [30] concerns Pseudomonas aeruginosa. The series is described as follows: Antimicrobial activity against Pseudomonas aeruginosa B4 by broth dilution method. Format: functional.
For series [31], the system named is Pseudomonas aeruginosa. The series is described as follows: Antimicrobial activity against oprD protein deficient Pseudomonas aeruginosa C2 by broth dilution method. Format: functional.
In series [32] the test system is Pseudomonas aeruginosa. The series is described as follows: Antimicrobial activity against mexAB-oprM protein and mexCD-oprJ deficient Pseudomonas aeruginosa PAO238 by broth dilution method. Format: functional.
The test system of series [33] is Pseudomonas aeruginosa. Nature of the series: Antimicrobial activity against mexAB-oprM protein and mexCD-oprJ deficient Pseudomonas aeruginosa PAO253 overexpressing MexEF-OprN gene by broth dilution method. Format: functional.
For series [34], the system named is Pseudomonas aeruginosa. Nature of the series: Antimicrobial activity against mexAB-oprM protein and mexZ deficient Pseudomonas aeruginosa PAO267 by broth dilution method. Type of series: functional.
The test system of series [35] is Pseudomonas aeruginosa. Nature of the series: Antimicrobial activity against mexAB-oprM, mexCD-oprJ, mexEF-oprN, mexJK, mexXY, opmH and pscC gene deficient Pseudomonas aeruginosa PAO750 by broth dilution method. Type of series: functional.
The subject of series [36] is Pseudomonas aeruginosa. Nature of the series: Antimicrobial activity against Pseudomonas aeruginosa BA(C2-107) selected after 25 ug/ml of compound exposure by broth dilution method. Format: functional.
Series [37] deals with Pseudomonas aeruginosa. The series is described as follows: Antimicrobial activity against Pseudomonas aeruginosa BA(C1-106) selected after 25 ug/ml of compound exposure by broth dilution method. Type of series: functional.
Series [38] has as its system Pseudomonas aeruginosa. The series is described as follows: Antimicrobial activity against Pseudomonas aeruginosa BA by broth dilution method. Type of series: functional.
Series [39] concerns Pseudomonas aeruginosa. The conditions noted are these: PAO1.
Substrate in series [40]: CC1(C)[C@H](NC(=O)/C(=N\OCc2cc(=O)c(O)cn2O)c2csc(N)n2)C(=O)N1OS(=O)(=O)O
The note with it: Escherichia coli; ATCC 25922.

Substrate in series [41]: C[C@H]1[C@H](NC(=O)/C(=N\OC(C)(C)C(=O)O)c2csc(N)n2)C(=O)N1S(=O)(=O)O
The note with it: Escherichia coli; ATCC 25922.

Substrate in series [42]: CC1(C)[C@H](NC(=O)/C(=N\OCc2cc(=O)c(O)cn2O)c2csc(N)n2)C(=O)N1OS(=O)(=O)O
The conditions noted are these: Escherichia coli; ATCC 25922. This is another data set of the same source.

Substrate in series [43]: C[C@H]1[C@H](NC(=O)/C(=N\OC(C)(C)C(=O)O)c2csc(N)n2)C(=O)N1S(=O)(=O)O
The note with it: Escherichia coli; ATCC 25922. This is another data set of the same source.

As a reminder, the MIC50 is an inhibitory concentration at the 50% level, which refers to growth in some studies and to a panel of isolates in others. Higher therefore signals weaker potency. A word on the MIC90: it is the lowest concentration that inhibits either 90% of growth or 90% of the strains tested, depending on the study. High values mean lower susceptibility, low ones higher susceptibility. Usually IC50 stands for the point on the concentration scale where inhibition reaches its midpoint. Read a low IC50 as higher potency. For the molecule `C[C@H]1[C@H](NC(=O)/C(=N\OC(C)(C)C(=O)O)c2csc(N)n2)C(=O)N1S(=O)(=O)O` [AZTREONAM], the MIC50 against Klebsiella aerogenes was 4 µg/mL (≈ 9.19 µM); against Citrobacter freundii it was greater than 32 µg/mL; in the series on Escherichia coli [1], greater than 32 µg/mL; against Klebsiella oxytoca [2], 16 µg/mL (≈ 36.7 µM); against Acinetobacter sp. it was greater than 32 µg/mL. Besides, the MIC90 in the series with Klebsiella aerogenes, in the series on Citrobacter freundii, against Escherichia coli [1], with Klebsiella oxytoca [2] and in the series on Acinetobacter sp. was greater than 32 µg/mL each time. Also, the MIC in the series with Citrobacter freundii was greater than 32 µg/mL; in the series on Escherichia coli [3], 32 µg/mL (≈ 73.5 µM); in the series on Escherichia coli [4], greater than 32 µg/mL; with Escherichia coli [5], 32 µg/mL (≈ 73.5 µM); in the series on Klebsiella pneumoniae [6] it was greater than 32 µg/mL; in the series with Escherichia coli [7], greater than 32 µg/mL. Moreover, the MIC in the series on Klebsiella pneumoniae [8] is greater than 32 µg/mL; against Klebsiella oxytoca [9] it was greater than 32 µg/mL; with Serratia marcescens it was 16 µg/mL (≈ 36.7 µM); in the series on Escherichia coli [10], greater than 32 µg/mL; in the series on Klebsiella pneumoniae [11], greater than 32 µg/mL; with Klebsiella pneumoniae [12], greater than 32 µg/mL. The MIC against Acinetobacter baumannii [13] stood at 32 µg/mL (≈ 73.5 µM); against Pseudomonas aeruginosa [14] it was 16 µg/mL (≈ 36.7 µM); with Providencia rettgeri, 2 µg/mL (≈ 4.59 µM); in series [15] it was 32 µg/mL (≈ 73.5 µM); in the series with Escherichia coli [16], 16 µg/mL (≈ 36.7 µM); against Acinetobacter baumannii [21], 32 µg/mL (≈ 73.5 µM). Further, the values for the MIC with Acinetobacter baumannii [22], in the series on Acinetobacter baumannii [27] and against Pseudomonas aeruginosa [28] were 32 µg/mL (≈ 73.5 µM), 16 µg/mL (≈ 36.7 µM) and greater than 32 µg/mL, respectively. Besides, the IC50 in [17] is greater than 50 µM; in [18] it was greater than 50 µM; in series [19], greater than 50 µM; in series [20] it was 23 nM; in series [25], greater than 2.5 mM; in [26], 1.1 mM. Further, 60 nM corresponded to half-maximal inhibition against AmpC (IC50). For the same molecule, the result with Escherichia coli [23] and in the series on Escherichia coli [24] was Active.
Take POLYMYXIN B: the MIC50 against Acinetobacter sp. and against Pseudomonas aeruginosa [29] was 4 µg/mL throughout. The MIC90 in the series with Acinetobacter sp. is 32 µg/mL; in the series with Pseudomonas aeruginosa [29] it was 8 µg/mL. The MIC against Pseudomonas aeruginosa [30] was 2 µg/mL; with Pseudomonas aeruginosa [31], 4 µg/mL; with Pseudomonas aeruginosa [32] it was 8 µg/mL; against Pseudomonas aeruginosa [33], 4 µg/mL; in the series on Pseudomonas aeruginosa [34], 8 µg/mL; with Pseudomonas aeruginosa [35], 8 µg/mL. Further, the MIC in the series with Pseudomonas aeruginosa [36] was determined as 4 µg/mL; in the series on Pseudomonas aeruginosa [37], 2 µg/mL; with Pseudomonas aeruginosa [38], 4 µg/mL; against Pseudomonas aeruginosa [39], 8 µg/mL.
In general, Km refers to the concentration of substrate that gives half-maximal velocity. A word on the kcat: it is the number of substrate molecules converted per active site and unit of time at saturation. Broadly, the kcat/Km is the second-order rate constant that governs catalysis at low substrate concentration. Turning to MFKTTLCALLITASCSTFAA [AmpC (Escherichia coli), Q83TT7], the Km in series [40] is 100 µM; in series [41], 21 µM. The results for the kcat in series [40] and in series [41] were 0.004 s⁻¹ and 6e-05 s⁻¹, respectively. For the same molecule, the figures for the kcat/Km in series [42] and in series [43] were 38 M⁻¹ s⁻¹ and 2.9 M⁻¹ s⁻¹, respectively.

Values taken from ChEMBL document CHEMBL1255477, “In vitro properties of BAL30072, a novel siderophore sulfactam with activity against multiresistant gram-negative bacilli” (Antimicrob Agents Chemother, 2010).
